Measurements published in publication PMC8085414, “L-Carnitine Production Through Biosensor-Guided Construction of the Neurospora crassa Biosynthesis Pathway in Escherichia coli” (Frontiers in Bioengineering and Biotechnology, 2021).

Molecular target: T1, TMABADH.1S (Neurospora crassa, UniProt Q7RYT1)
T1 construct: gene NCU00378; 495 AA short annotation of NCU00378; codon-harmonized synthetic gene in pECXT99A, E. coli DH5alpha crude extract
T1 sequence (Q7RYT1 52-546): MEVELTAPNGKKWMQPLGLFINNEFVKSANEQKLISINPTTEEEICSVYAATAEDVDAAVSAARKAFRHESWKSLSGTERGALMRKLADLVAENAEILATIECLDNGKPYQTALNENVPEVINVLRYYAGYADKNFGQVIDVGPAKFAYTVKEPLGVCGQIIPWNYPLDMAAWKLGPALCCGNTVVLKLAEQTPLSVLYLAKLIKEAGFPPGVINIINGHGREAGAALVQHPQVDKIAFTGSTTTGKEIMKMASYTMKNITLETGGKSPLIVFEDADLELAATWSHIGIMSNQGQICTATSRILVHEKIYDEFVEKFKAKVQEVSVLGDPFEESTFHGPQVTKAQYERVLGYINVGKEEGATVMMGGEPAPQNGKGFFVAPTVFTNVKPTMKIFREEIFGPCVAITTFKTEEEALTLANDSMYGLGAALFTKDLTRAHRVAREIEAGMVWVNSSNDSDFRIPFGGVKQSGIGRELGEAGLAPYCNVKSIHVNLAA
Assay: NADH formation at […] nm, E. coli crude extract
Assay type: biochemical
Conditions: 2 mM NAD+, 0.4 mM TMABA iodide, glycine-NaOH pH 9.5, 30 °C

NC(=O)c1ccc[n+]([C@@H]2O[C@H](COP(=O)(O)OP(=O)(O)OC[C@H]3O[C@@H](n4cnc5c(N)ncnc54)[C@H](O)[C@@H]3O)[C@@H](O)[C@H]2O)c1 [NAD^+]
NADH formation at 340 nm, E. coli crude extract: co-conversion of NAD^+ to NADH in the TMABADH reaction
